Test results published in patent US5922708A, “Heteroaryl-oxazolidinones” (Bayer Aktiengesellschaft, priority 1996, dated 1999).
≈ marks a conversion by molar mass, not a printed value. Read-outs that look alike come from different tables or passages of the source.

Columns and labels:
Format in all cases: cell-based
Staph. 133 = experiment: MIC by serial dilution method on Iso-Sensitest agar
Procedure: (§1) The minimum inhibitory concentrations (MIC) were determined by the serial dilution method on Iso-Sensitest agar (Oxoid). For each test substance a series of agar plates were prepared which contained decreasing concentrations of the active substance, obtained by twofold dilution from one plate to the next. The agar plates were inoculated with a Multipoint inoculator (Denley). Inoculation was effected using overnight cultures of the pathogens which had been diluted beforehand so that each inoculation point contained ca. 10^4 colony forming particles. The inoculated agar plates were incubated at 37° C. and the bacterial growth was evaluated after ca. 20 hours. The MIC value (μg/ml) indicates the lowest active substance concentration at which no growth was detectable with the naked eye.

Staph. 9TV = experiment: as above
Procedure: as §1

E. coli Neumann = experiment: as above; conditions: Escherichia coli
Procedure: as §1

Staph. 25701 = experiment: as above
Procedure: as §1

Staph. 48N = experiment: as above
Procedure: as §1

Klebs. 57 USA = experiment: as above
Procedure: as §1

[1] = test system: Mycobacterium smegmatis DSM 43078; experiment: MIC for rapidly growing mycobacteria, broth microdilution method; conditions: Mycolicibacterium smegmatis, DSM43078, inoculum 4.20E + 04 [/ml], 37° C., 2-4 days
Procedure: For rapidly growing mycobacteria the MIC were determined on the basis of the broth microdilution method described by Swenson [cf. J. M. Swenson, C. Thomberry, U. A. Silcox, Rapidly growing mycobacteria. Testing of susceptibility to 34 antimicrobial agents by broth microdilution. Antimicrobial Agents and Chemotherapy, vol. 22, 186-192 (1982)]. The brain-heart extract medium treated with 0.1 vol.% of Tween 80 was an exception.
The mycobacterial strains used were obtained from the DSM (Deutsche Sammlung von Mikroorganismen (German Collection of Microorganisms), Brunswick). They were incubated in a moist chamber at 37° C.
The MIC values were evaluated after 2-4 days, when the preparation-free controls were opaque due to growth.

Psdm. Bonn = experiment: MIC by serial dilution method on Iso-Sensitest agar
Procedure: as §1

[2] = Staph. 133, agar, 37° C., ca. 20 hours, read-out: MIC
[3] = Staph. 9TV, agar, 37° C., ca. 20 hours, read-out: MIC
[4] = E. coli Neumann, agar, 37° C., ca. 20 hours, read-out: MIC
[5] = Staph. 25701, agar, 37° C., ca. 20 hours, read-out: MIC
[6] = Staph. 48N, agar, 37° C., ca. 20 hours, read-out: MIC
[7] = Klebs. 57 USA, agar, 37° C., ca. 20 hours, read-out: MIC

| SMILES | MIC (Staph. 133; [2]) [µg/mL] | MIC (Staph. 9TV; [3]) [µg/mL] | MIC (E. coli Neumann; [4]) [µg/mL] | MIC (Staph. 25701; [5]) [µg/mL] | MIC (Staph. 48N; [6]) [µg/mL] | MIC (Klebs. 57 USA; [7]) [µg/mL] | MIC [1] [µg/mL] | MIC (Staph. 133; 20 h) [µg/mL] | MIC (Staph. 9TV; 20 h) [µg/mL] | MIC (E. coli Neumann; 20 h) [µg/mL] | MIC (Staph. 25701; 20 h) [µg/mL] | MIC (Psdm. Bonn; 20 h) [µg/mL] | MIC (Staph. 48N; 20 h) [µg/mL] | MIC (Klebs. 57 USA; 20 h) [µg/mL] | MIC (Psdm. Bonn; Psdm. Bonn, agar, 37° C., ca. 20 hours, read-out: MIC) [µg/mL] |
| --- | --- | --- | --- | --- | --- | --- | --- | --- | --- | --- | --- | --- | --- | --- | --- |
| COC(=O)NC[C@H]1CN(c2ccc(Br)c(C)n2)C(=O)O1 [Example 25] | 2 (≈ 5.81 µM) | 1 (≈ 2.91 µM) | > 64 | 2 (≈ 5.81 µM) | 2 (≈ 5.81 µM) | > 64 |  |  |  |  |  |  |  |  |  |
| NNC(=O)c1ccncc1 [Isoniazid] |  |  |  |  |  |  | 2 |  |  |  |  |  |  |  |  |
| O=C(CF)NC[C@H]1CN(c2ccc(-c3cccnc3)s2)C(=O)O1 [Example 18] |  |  |  |  |  |  |  | 2 (≈ 5.96 µM) | 1 (≈ 2.98 µM) | > 64 | 4 (≈ 11.9 µM) | > 64 | 4 (≈ 11.9 µM) | > 64 |  |
| CCCOC(=O)NC[C@H]1CN(c2ccc(-c3cccnc3)s2)C(=O)O1 [Example 20] | 2 (≈ 5.53 µM) | 2 (≈ 5.53 µM) | > 64 | 2 (≈ 5.53 µM) | 2 (≈ 5.53 µM) | > 64 |  |  |  |  |  |  |  |  | > 64 |
